Consider 1 compound from patent US20240093034A1, “FLUORESCENT DYES” (EXOPHARM LIMITED, priority 2020, published 2024).

Data set [1] concerns normal human dermal fibroblasts (NHDF). Briefly: Labelling of human cells with dyes (plate fluorescence). The conditions noted are these: 2 μM dye, 1 hr 37° C., washed with HBSS; higher = more incorporation. In kind it is cell-based. How it is done:
Labelling of human cells with dyes 1-10 was performed according to the following procedure. Each well of a Costar 96 well flat bottom plate was seeded with 5,000 normal human dermal fibroblasts (NHDF; not older than P9) and allowed to attach overnight in full media: fibroblast growth media (Lonza)+2% v/v fetal calf serum. Each dye was diluted 1:50 from a stock of 1 mM with 10 mM L-histidine, 150 mM NaCl, pH 6.0, to a final concentration of 20 μM. The dye was subsequently added to full media at a further 1:10 dilution to a final concentration of 2 μM. The media on the cells was subsequently replaced with the freshly prepared full media containing the dye. For negative controls, an equivalent volume of the diluent solution was added to the cell solution. Cells were incubated for 1 hr at 37° C. and then washed with 1 xHBSS (Hank's balanced salt solution) to remove free dye. Plate was imaged using the CLARIOStar spectrophotometer (5x5 matrix mode, average of 25 data points, 3 wells for each dye). A higher fluorescence indicates a higher amount of incorporation into the cells.

Data set [2] has as its system bone marrow-derived MSCs (BM-MSCs). The data set is described as follows: Imaging human cells labelled with dye (microscopy). The conditions noted are these: 0.2 μM dye. Format: cell-based. How it is done: The cells were imaged to assess incorporation of the dyes according to the following procedure. Cell+dye 2 samples were prepared following the procedure in Example 4 with the following modifications: the cells were seeded with NHDF (not older than P9), human umbilical cord-derived mesenchymal stem cells (UC-MSCs) or bone marrow-derived MSCs (BM-MSCs); and the dye 2 was used in a final concentration of 0.2 μM. Before imaging, each well was washed with 1× HBSS (−) once. 100-200 μL of 1× HBSS (−) was added to each well prior to imaging to make sure the cells are not dried out. The cells were imaged on a Thermo Fisher Evos M5000 microscope equipped with the Texas Red filter. Routinely utilized conditions are (magnification, light, exposure, gain): 10× Texas Red, 22, 146, 105; 20× Texas Red, 12, 133, 64; 40× Texas Red, 36, 79, 40. Settings were held constant for all images taken on the same plate.

In another data set the test system is CD4+ T cells. Briefly: Multi-donor mixed lymphocyte reaction (mdMLR) assay. Format: cell-based, human. The text has this:
The immunomodulatory potential of dye 2-labelled and non-labelled MSC-EV preparations were compared in a multi-donor mixed lymphocyte reaction assay (MLR) as described previously (Madel et al., 2020, Independent human mesenchymal stromal cell-derived extracellular vesicle preparations differentially affect symptoms in an advanced murine Graft-versus-Host-Disease model. bioRxiv, 2020.2012.2021.423658). Briefly, Ficoll prepared peripheral blood mononuclear cells (PBMC) of 12 healthy donors were mixed in equal proportions, aliquoted and stored in the vapour phase of liquid nitrogen until usage. After thawing 600,000 cells were seeded per well of a 96-well U-bottom shape plates (Corning, Kaiserslautern, Germany) and cultured in 10% human AB serum (produced in house) and 100 U/mL penicillin and 100 µg/mL streptomycin (Thermo Fisher Scientific) supplemented RPMI 1640 medium (Thermo Fisher Scientific) in a final volume of 200 μL per well, either in the presence or absence of MSC-EV preparations to be tested. After 5 days, cells were harvested, stained with a collection of different fluorescent labelled antibodies (CD4-BV785; BioLegend, San Diego, CA, USA; CD25-PE-Cy5.5; BD Bioscience; and CD54-AF700; EXBIO) and analysed on a Cytoflex flow cytometer (Software CytExpert 2.3, Beckman-Coulter). […]

Another data set deals with PBMCs. The data set is described as follows: Uptake of dye 2-labelled MSC-EVs by immune cells of the mdMLR assay. Format: cell-based, human. The conditions noted are these: 5 days with dye 2-labelled MSC-EVs. How it is done: The MSC-EV preparations were stained with dye 2 of the invention according to the following protocol. Dye 2 was provided as a lyophilised powder. 1 mg of dye 2 was resuspended with 1 mL buffer to a final concentration of […]. Like CFDA-SE, the dye 2 solution was centrifuged for 10 min at 17,000 x g to reduce background noise to a minimum. Briefly, for the EV-labelling 25 μL of the MSC-EV preparations were incubated with 25 μL of a prepared, centrifuged dye 2 solution (0.2 μM) for 1 hour at 37° C. The sample was diluted 1:20 to a final volume of 1 mL prior to analysis. For EV uptake experiments dye 2-labelled MSC-EV preparations were cleared from EV unbound dye 2 by ultrafiltration. Briefly, after labelling with dye 2, the MSC-EVs were washed by via centrifugation at 12,000xg through Vivaspin 500 filters (Sartorius) for 10 min. The retentate was collected as labelled EV sample.
The immunomodulatory potential of dye 2-labelled and non-labelled MSC-EV preparations were compared in a multi-donor mixed lymphocyte reaction assay (MLR) as described previously (Madel et al., 2020, Independent human mesenchymal stromal cell-derived extracellular vesicle preparations differentially affect symptoms in an advanced murine Graft-versus-Host-Disease model. bioRxiv, 2020.2012.2021.423658). Briefly, Ficoll prepared peripheral blood mononuclear cells (PBMC) of 12 healthy donors were mixed in equal proportions, aliquoted and stored in the vapour phase of liquid nitrogen until usage. After thawing 600,000 cells were seeded per well of a 96-well U-bottom shape plates (Corning, Kaiserslautern, Germany) and cultured in 10% human AB serum (produced in house) and 100 U/mL penicillin and 100 µg/mL streptomycin (Thermo Fisher Scientific) supplemented RPMI 1640 medium (Thermo Fisher Scientific) in a final volume of 200 μL per well, either in the presence or absence of MSC-EV preparations to be tested. After 5 days, cells were harvested, stained with a collection of different fluorescent labelled antibodies (CD4-BV785; BioLegend, San Diego, CA, USA; CD25-PE-Cy5.5; BD Bioscience; and CD54-AF700; EXBIO) and analysed on a Cytoflex flow cytometer (Software CytExpert 2.3, Beckman-Coulter). Activated and non-activated CD4^+ T cells were discriminated by means of their CD25 and CD54 expression, respectively. Typically, 5 μL of MSC-EV preparations to be tested were applied into respective wells. The following antibodies were used to further discriminate subpopulations: CD8-BV650 (BioLegend), CD14-PO (EXBIO), CD19-ECD (Beckman Coulter) and CD56-APC (BioLegend). The evaluation of the data was carried out with the Kaluza software (Version 2.1, Beckman Coulter).
To investigate whether EV labelling with dye 2 of the invention allows the identification of EV-uptaking cells, the labelled EV uptake of the different immune cells within the mdMLR assay was examined. To this end, a pool of PBMCs derived from 12 healthy donors were cultured for 5 days in the presence of dye 2-labelled MSC-EVs (n=3) that had been cleared from excess dye 2 by ultrafiltration. Thereafter, cells were harvested, antibody labelled and analysed by flow cytometry. The content of dye 2-labelled cells within different PBMC subtypes was determined. […] In contrast, only proportions of the different lymphocytes appeared as dye 2 positive cells, i.e. 71% of all CD4^+ T cells (CD4^+ cells), 34% of all CD8^+ T cells (CD8^+ cells), 72% of all B cells (CD19^+ cells) and 15% of all NK cells (CD56^+ cells). […]

In data set [1], `CCCCCCCCCCCCCCCCCCN(C)C(=O)c1ccccc1-c1c2ccc(=[N+](CC)CC)cc-2oc2cc(N(CC)CC)ccc12.[Cl-]` [Dye 2, Rhodamine B N-methyloctadecylamide] yielded an FLD of 123449. Also, the “labelling of cells (microscopy, FIG. 3(c))” value in data set [2] is “capable of labelling”. Besides, the “influence on activation status of CD4+ T cells” value in the data set on CD4+ T cells (buffer solved dye alone) is listed as “did not influence the activation status”. Also, the “reduction in CD4+ T cell activation” value with CD4+ T cells (dye 2-labelled MSC-EV preparations (n=3), versus non-labelled) is reported as “comparable reduction”. For the same compound, in the data set with PBMCs, the “dye 2 positive B cells (CD19+ cells)” value came out at 72%, the “dye 2 positive CD4+ T cells” value is listed as 71%, the “dye 2 positive CD8+ T cells” value is on record as 34% and the “dye 2 positive NK cells (CD56+ cells)” value was determined as 15%. In addition, the “dye 2 positive monocytes (CD14+ cells)” value in the data set with PBMCs was 99%.
